Assay results published in patent US20230278972A1, “SUBSTITUTED HALOALKYL SULFONANILIDE HERBICIDES” (FMC Corporation, priority 2020, published 2023).

Tests used:
Assay type in all cases: in vivo
[1] = test system: Ryegrass, Italian (Italian ryegrass, Lolium multiflorum); test: Test A1 postemergence, Ryegrass, Italian; conditions: for Plant response rating, Ryegrass, Italian: Postemergence; for Ryegrass, Italian plant response rating: postemergence
Procedure, shortened: (§1)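 Plants grown in pots of loam/sand mix; preemergence = soil-directed spray on seeded pots, postemergence = spray at 1–2 leaves, height 2–10 cm; test chemicals formulated in non-phytotoxic solvent with surfactant.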

[2] = test system: galium (catchweed bedstraw, Galium aparine); test: Test A1 postemergence, galium; conditions: for Plant response rating, Galium: Postemergence; for Galium plant response rating: postemergence
Procedure, shortened: as §1

[3] = test system: ducksalad (Heteranthera limosa); test: Test B1 flooded paddy test, ducksalad; conditions: 250 g ai/ha, Flood, applied to paddy water, 2-leaf stage, visually evaluated after 10 to 14 days
Source text: A dash (-) response means no test result.

[4] = test system: horseweed (Erigeron canadensis); test: Test A1 postemergence, horseweed; conditions: for Plant response rating, Horseweed: Postemergence; for Horseweed plant response rating: postemergence
Procedure, shortened: as §1

[5] = test system: blackgrass (Alopecurus myosuroides); test: Test A1 preemergence, blackgrass
Procedure, shortened: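 Test compounds were formulated in a non-phytotoxic solvent mixture containing a surfactant. For preemergence, seeds sown in a loam soil–sand blend received a directed soil spray. For postemergence, potted plants in the same soil, 2 to 10 cm tall at the one- to two-leaf stage, were sprayed.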

[6] = 31 g ai/ha, 0 to 100 scale (0 no effect, 100 complete control), 10 days
[7] = 31 g ai/ha, 0 to 100 scale (0 no effect, 100 complete control)
[8] = 125 g ai/ha, 0 to 100 scale (0 no effect, 100 complete control), 10 days
[9] = 125 g ai/ha, 0 to 100 scale, 0 no effect, 100 complete control

Row | Compound | Plant response rating, Ryegrass, Italian [1, 6] | Plant response rating, Ryegrass, Italian ([1]; 125 g ai/ha, 0 to 100 scale) | Plant response rating, Galium [2, 6] | Plant response rating, Galium ([2]; 125 g ai/ha, 0 to 100 scale) | Plant response rating, Ducksalad (0 to 100 scale, 0 is no effect, 100 is complete control) [3] | Plant response rating, Horseweed [4, 6] | Plant response rating, Horseweed ([4]; 125 g ai/ha, 0 to 100 scale) | Ryegrass, Italian plant response rating [1, 7] | Plant response rating, Ryegrass, Italian [1, 8] | Galium plant response rating [2, 7] | Plant response rating, Galium [2, 8] | Horseweed plant response rating [4, 7] | Plant response rating, Horseweed [4, 8] | Plant response rating, Ryegrass, Italian ([1]; 500 g ai/ha, 0 to 100 scale) | Plant response rating, Blackgrass [5, 9] | Plant response rating, Blackgrass ([5]; 500 g ai/ha, 0 to 100 scale (0 no effect, 100 complete control)) | Plant response rating, Galium ([2]; 500 g ai/ha, 0 to 100 scale) | Plant response rating, Blackgrass [5, 7]
1 | Cc1c(NS(=O)(=O)C(F)(F)F)cc(C(=O)N2CCSCC2)c(C)c1C [Compound 283] | 0 | 40 | 50 | 70 | 50 | 70 | 80 | – | – | – | – | – | – | – | – | – | – | –
2 | Cc1c(C2=NOC3(CCCC3)C2)cc(N(COC(=O)C(C)(C)C)S(=O)(=O)C(F)(F)F)c(C)c1C [Compound 382] | – | – | – | – | 25 | – | – | 0 | 0 | 0 | 50 | 0 | 50 | – | – | – | – | –
3 | Cc1cc(C)c(N(COC(=O)C(C)(C)C)S(=O)(=O)C(F)(F)F)cc1N1CCC2(CCC(F)(F)CC2)C1=O [Compound 397] | – | – | – | – | 75 | – | – | – | 50 | – | 100 | – | – | 80 | 40 | 90 | 100 | –
4 | Cc1cc(C)c(C2=NOC(C(C)C)C2)cc1NS(=O)(=O)C(F)(F)F (centres unmarked) [Compound 381] | – | – | – | – | 50 | – | – | 0 | 0 | 0 | 50 | 0 | 30 | – | – | – | – | –
5 | CCOc1cccc2c1C(=O)N(c1cc(N(COC(=O)C(C)(C)C)S(=O)(=O)Cl)c(C)cc1C)C2 [Compound 414] | – | – | – | – | 40 | – | – | 0 | 0 | 60 | 70 | 0 | 70 | – | – | – | – | –
6 | Cc1ccc(C2=NOC3CCCC23)cc1NS(=O)(=O)C(F)(F)F (centres unmarked) [Compound 377] | – | 0 | – | 0 | 15 | – | 80 | 0 | – | 0 | – | 30 | – | – | – | – | – | –
7 | C#CCN(C)C(=O)c1cc(NS(=O)(=O)C(F)(F)F)c(C)c(C)c1C [Compound 368] | – | 90 | – | 100 | 60 | – | – | 20 | – | 70 | – | – | – | – | 40 | – | – | 10
8 | CCOC(=O)N(c1cc(C(=O)N2CCSCC2)c(C)c(C)c1C)S(=O)(=O)C(F)(F)F [Compound 286] | 0 | 0 | 50 | 80 | 50 | 0 | 60 | – | – | – | – | – | – | – | – | – | – | –
9 | C#CCN(C)C(=O)c1cc(N(COC(=O)C(C)(C)C)S(=O)(=O)C(F)(F)F)c(C)c(C)c1C [Compound 371] | – | 80 | – | 100 | 55 | – | – | 20 | – | 70 | – | – | – | – | 20 | – | – | 0
10 | Cc1c(C(=O)N2C[C@@H](C)O[C@H](C)C2)cc(N(COC(=O)C(C)(C)C)S(=O)(=O)C(F)(F)F)c(C)c1C (relative stereo) [Compound 373] | – | 30 | – | 70 | 85 | – | – | 0 | – | 50 | – | – | – | – | 30 | – | – | 30
11 | COC1CCN(C(=O)c2cc(N(COC(=O)C(C)(C)C)S(=O)(=O)C(F)(F)F)c(C)c(C)c2C)CC1 [Compound 370] | – | 0 | – | 100 | 70 | – | – | 0 | – | 90 | – | – | – | – | 0 | – | – | 0
